Like-named read-outs stand apart in the source and are kept apart here.

The test system of data set [1] is carrageenan pleurisy (3 hour pleural exudate volume). As to the kind of experiment: Carrageenan Pleurisy Assay (CPA), acute anti-inflammatory activity, oral dosing. The format is in vivo. The conditions noted are these: for ED50: po, dose reducing the 3 hour exudate volume by 50%, p.o., 5 animals per group, read-out: ED50 3 hr. vol. p.o. The method, then: Following the procedure previously described by Vinegar et al. in Proc. Soc. Exp. Biol. Med., 143, 711, (1973) as recently modified /Vinegar et al., Eur. J. Rheum. Inflamm., 1, 204 (1978)/ the acute anti-inflammatory activity of 3-deazaadenosine was compared with that of known anti-inflammatory drugs. The average 3 hour exudate volume for each drug treated group was determined and the % inhibition relative to solvent-fed control animals calculated, the ED 50 (mg/kg body weight) being the dose required to reduce the 3 hour exudate volume by 50%. There were 5 animals in each drug-treated group and the control group.
By means of the Carrageenan Pleurisy Assay of Example 1 the duration of action of the tests compounds after a single oral pretreating dose was determined. For 3-deazaadenosine the effect lasted for 14.9 hours at 6 mg/kg (p.o.) whilst for aspirin (150 mg/kg p.o.) and acetaminophen (220 mg/kg p.o.) the effect lasted for […] and 2 hours respectively. This value represents the time (hours) of drug administration prior to the injection of carrageenan in which the inhibition of the 3 hour pleural exudate volume declined to 40%.

For data set [2], the system named is carrageenan pleurisy (3 hr. exudate volume). As to the kind of experiment: Carrageenan Pleurisy Assay (CPA), local (intra-pleural) anti-inflammatory activity. The format is in vivo. Conditions: read-out: ED50 3 hr. vol. local (intra-pleural). From the text: Following the procedure described by Vinegar et al. /Eur. J. Rheum. […] There were 5 animals in each drug-treated group and the control group.

The subject of data set [3] is adjuvant arthritis. As to the kind of experiment: Adjuvant arthritis, developing and established, arthritic joint scores. The format is in vivo. The conditions noted are these: Rattus norvegicus, rats; for ED25: feed or water, 1008 h, drug in diet from day 21 to 42; for ED50: po, 384 h, drug in diet from day 1 to day 16. As for the experimental part:
The effect of 3-deazaadenosine in rats againt both developing and established adjuvant arthritis was determined by the method described by R. Vinegar et al. Journal of Immunopharmacology. 1, 483, (I979). The scoring procedure of A.L.F. Currey and M. Ziff, J. Exp. Med., 121, 185 (1968) was used to assess the arthritic joint scores of rats. There were 5 animals in each drug-treated group. For developing adjuvant arthritis the drugs were administered in the diet from day 1 to day 16. For established adjuvant arthritis the drugs were administered from day 21 to 42.

The subject of data set [4] is lipoxygenase. As to the kind of experiment: Prostaglandin metabolism in vitro, lipoxygenase pathway. It counts as biochemical.
The subject of data set [5] is cyclooxygenase. As to the kind of experiment: Prostaglandin metabolism in vitro, cyclooxygenase pathway. It counts as biochemical.
Data set [6] can be described thus: Antipyretic activity. Conditions: in vivo.
The nature of data set [7]: Analgesic activity. It counts as in vivo. Conditions: per se.
The test system of data set [8] is liver. As to the kind of experiment: Liver damage in animal models. The conditions noted are these: animal models used. The format is in vivo.
Data set [9] can be described thus: Half life. Conditions: in vivo.
A short description of data set [10]: Water solubility. The format is physicochemical.
The nature of data set [11]: Therapeutic index. The conditions noted are these: in vivo.
Data set [12] has as its system immune response. Conditions: earlier disclosed activity (UK Patent Application No. 40447/78); cited from earlier work.
The conditions of data set [13]: earlier disclosed activity (US Patent No. 4 148 888); cited from earlier work.

On to `Nc1nccc2c1ncn2[C@@H]1O[C@H](CO)[C@@H](O)[C@H]1O` [3-Deazaadenosine, 4-amino-1-β-D-ribofuranosyl-1H-imidazo-[4,5-c]-pyridine], for which the duration of action entry in [1] (general statement in the description, no dose given) was “about 15 hours”; in [1] (single oral pretreating dose 6 mg/kg (p.o.), time before carrageenan at which inhibition of 3 hour pleural exudate volume declined to 40%) it was 14.9 h. The ED50 in data set [1] was 2.8 ± 0.65 mg/kg; in [2] (local (intra-pleural) administration, 5 animals per group) it was 0.05 mg/kg; in data set [3], 8 ± 2.8 mg/kg. In addition, the ED25 in [3] is around 18 mg/kg/day. The “inhibition of prostaglandin metabolism, lipoxygenase pathway” value in data set [4] is listed as “does not inhibit”. Besides, the “inhibition of prostaglandin metabolism, cyclooxygenase pathway” value in data set [5] is “does not inhibit”. Moreover, the antipyretic activity entry in [6] was “not antipyretic”. In data set [7], the analgesic activity result is “no analgesic activity”. Also, the liver damage entry in [8] is on record as “does not cause liver damage”. In addition, in [9], the half life result was “short half life”. For the same compound, the water solubility entry in data set [10] was “high water solubility”. Moreover, the therapeutic index entry in data set [11] is on record as “high therapeutic index”. Also, the “dose required for immunesuppression” value in [12] is given as “more than 30 mg/kg”. For the same compound, in data set [13], the “dose required for antiviral activity” value was 100-200 mg/kg per day.
In the case of `C[C@]12CCC(=O)C=C1CC[C@@H]1[C@@H]2[C@@H](O)C[C@@]2(C)[C@H]1CC[C@]2(O)C(=O)CO` [Hydrocortisone], the values for the ED50 in [1] and in data set [2] were 14 ± 10.2 mg/kg and 0.1 mg/kg, respectively.
`CC(=O)Oc1ccccc1C(=O)O` [Aspirin]: the ED50 was found to be 28 ± 3.2 mg/kg in data set [1], 0.04 mg/kg in [2] and 150 ± 53.1 mg/kg in [3]. Besides, the duration of action in data set [1] (single oral pretreating dose 150 mg/kg p.o., time before carrageenan at which inhibition of 3 hour pleural exudate volume declined to 40%) was 35 h. Also, the ED25 in data set [3] came to 150 mg/kg/day.
As to `CC(=O)Nc1ccc(O)cc1` [acetaminophen], the duration of action in data set [1] (single oral pretreating dose 220 mg/kg p.o., time before carrageenan at which inhibition of 3 hour pleural exudate volume declined to 40%) was determined as 2 h.
`C[C@]12C=CC(=O)C=C1CC[C@@H]1[C@@H]2[C@@H](O)C[C@@]2(C)[C@H]1CC[C@]2(O)C(=O)CO` [Prednisolone]: the ED50 in [1] was 3 ± 0.5 mg/kg. Further, in [3], the ED25 was 0.2 mg/kg/day and the ED50 amounted to 1 ± 0.7 mg/kg.

The values are drawn from patent EP0038567A1, “Deazapurine nucleoside, formulations thereof, and use thereof in therapy” (THE WELLCOME FOUNDATION LIMITED, priority 1980, dated 1981).
